Values joined by “and” are separate entries in the source; they are usually repeats but may differ in a detail not shown here. Identical values can stand only once. Like-named read-outs stand apart in the source and are kept apart here.
Experiments:
[1] = test system: intracellular L. aethiopica amastigotes; assay: Intracellular amastigote assay in mouse peritoneal macrophages; assay type: cell-based, Leishmania aethiopica; settings: for IC50 / inhibition at 1 µM: Leishmania aethiopica, Peritoneal macrophage, 72 h; for IC50: mouse peritoneal macrophages, read-out: IC50 against intracellular L. aethiopica amastigotes; for inhibition at 1 µM: read-out: percentage of inhibition of intracellular amastigotes
Protocol: Intracellular amastigote assay was conducted according to the method described elsewhere with modifications. Approximately 3 × 10^5 peritoneal macrophages were seeded in 24-well plates and allowed to adhere for 12 h at 33 °C in 5% CO2. Adherent cells were infected with late-stage L. aethiopica promastigotes (1:10 ratio) after washing out non-adherent cells twice. Only when > 70% of the macrophages present in the wells were infected was the infection deemed sufficient. The medium was then replaced with a fresh complete medium with or without test compounds and incubated for 72 h at 33 °C and 5% CO2. After 72 h of incubation, slides were washed with prewarmed PBS, fixed with methanol, and stained with Giemsa (10%) for 15 min and observed under 100x oil immersion objective microscope [Olympus]. Amphotericin B and pentamidine were used as reference drugs against test samples.
The IC50 was determined by counting amastigotes in (50) macrophages in duplicate cultures. In all assays except for haemolytic and THP- 1, test compounds were diluted in a two-fold dose-titration range (0.03 to 1 μM) in triplicate. Parasite burden was calculated using the infection index as shown below. Infection index=Number of infected macrophages/Total macrophage countedxTotal number of amastigotes in infected macrophages/Total infected macrophages counted

[2] = test system: L. aethiopica promastigotes; assay: Primary antipromastigote assay (resazurin based); assay type: cell-based; settings: Leishmania aethiopica, 72 h; for IC50: dose titration 0.03 to 1 μM, average of two independent experiments in triplicate, read-out: IC50 (95% CI) against Leishmania aethiopica promastigotes
Protocol: Test compounds were diluted in 96-well microculture plate containing 100 μL complete M199 medium. […] The Parasite density was kept constant at 1 × 10^5 per well. After 68 h of incubation, 10 μL of fluorochrome resazurin solution (Sigma-Aldrich, Co., St. […] The percentage of inhibition (%) was calculated for each concentration using the following formula: Inhibition%=100−Fluorescence in duplicate drug wells-Fluorescence in blank wells/Fluorescence control wells−Fluorescence in blank wells∗100

Haemolysis test = assay type: cell-based, sheep; settings: sheep
Protocol: (§1) The mixture was then centrifuged at 1000 g for 10 min. 75 μL of the resulting supernatant were transferred to 96-well plates and the absorbance readings obtained at 540 nm using Victor3 Multilabel Counter (PerkinElmer, Waltham, USA).

[3] = ref NCBI PubChem [29]-[39]; cited from earlier work
[4] = THP-1 cell cytotoxicity assay (resazurin); assay type: cell-based; settings: human
Protocol: (§2) Approximately 2 × 10^5 THP-1 cell suspension were added to 96-well microplate containing serially diluted 50 μL test compounds. Microplates were then incubated for 68 h at 37 °C in a 5% CO2 air mixture. Cell viability was determined with the resazurin- based fluorescence assay measured after a total incubation time of 72 h. The estimated median cell cytotoxicity (CC50) was calculated for each concentration using the formula: Cell viability%=Fluorescence in duplicate drug wells-Fluorescence blank wells/Fluorescence in control wells−Fluorescence blank wells∗100 The selectivity index of compounds was calculated from the ratio of the CC50 value determined in THP1 cells to the IC50 value determined from the dose-response curves in promastigote and amastigote assay using the following formula. Selectivity indexSI=CC50THP1cells/IC50promastigotes or amstigotes

[5] = test system: sheep red blood cells (RBCs); assay: Haemolysis test; assay type: cell-based; settings: at 25 μM
Protocol: as §1

THP-1 cells = assay: THP-1 cell cytotoxicity assay (resazurin); assay type: cell-based
Protocol: as §2

PMM cells = test system: PMM cells; set-up: method as in MMV (MMV PB website); settings: ref MMV (MMV PB website); read-out: IC50 against PMM cells; cited from earlier work
MRC-5 cells = test system: MRC-5 cells; set-up: method as in MMV (MMV PB website); settings: ref MMV (MMV PB website); read-out: IC50 against MRC-5 cells; cited from earlier work
L. infantum = test system: L. infantum; set-up: method as in MMV biological data; settings: ref MMV biological data; cited from earlier work
[6] = hit map sheet with colour categories, negative values shown as 0.00, read-out: Percentage of inhibition against Leishmania aethiopica promastigotes
[7] = hit map sheet without colour categories, negative values kept, read-out: Percentage of inhibition against Leishmania aethiopica promastigotes
[8] = sheep red blood cells (2% blood suspension), 1.56–25 μM, 2 h, 37 °C, read-out: Cytotoxicity, CC50, Sheep RBC
[9] = THP-1 cells, 72 h, read-out: Cytotoxicity, CC50, THP-1

| Structure (SMILES) | IC50 [1] [µM] | inhibition at 1 µM [2, 6] [%] | inhibition at 1 µM [2, 7] [%] | CC50 at 2 h (Haemolysis test; [8]) [µM] | R3 H+ bond receiver [3] | R6 Polar surface area [3] [A^2] | activities against the intracellular amastigotes (in words) [1] | IC50 [2] [µM] | CC50 at 72 h [4, 9] [µM] | inhibition at 1 µM [1] [%] | CC50 at 2 h (Haemolysis test) [µM] | CC50 at 72 h [4] [µM] | hemolytic activity on sheep RBC [5] [%] | CC20 on THP-1 cell line (THP-1 cells; 72 h) [µM] | IC50 (PMM cells) [µM] | IC50 (MRC-5 cells) [µM] | IC50 (L. infantum) [µM] | Cytotoxicity, CC50 (extrapolated IC50), THP-1 (THP-1 cells; 72 h, extrapolated result) | Selectivity index (SI) (THP-1 cells; CC50 THP-1 cells / IC50 promastigotes or amastigotes) |
| --- | --- | --- | --- | --- | --- | --- | --- | --- | --- | --- | --- | --- | --- | --- | --- | --- | --- | --- | --- |
| C[C@@H]1[C@H](O)[C@@H](C)/C=C/C=C/C=C/C=C/C=C/C=C/C=C/[C@H](O[C@@H]2O[C@H](C)[C@@H](O)[C@H](N)[C@@H]2O)C[C@@H]2O[C@](O)(C[C@@H](O)C[C@@H](O)[C@H](O)CC[C@@H](O)C[C@@H](O)CC(=O)O[C@H]1C)C[C@H](O)[C@H]2C(=O)O [Amphotericin B, reference compound] | 0.277 ± 0.0079 | 63 | 63 |  |  |  |  |  |  |  |  |  |  |  |  |  |  |  |  |
| CN1CCC(NCc2cccc(-c3ccc(S(=O)(=O)NCc4ccccc4)cc3)c2)CC1 [MMV022029] |  | 88 | 88 | > 25 | 5 | 69.8 | low | 0.305 | > 25 |  |  |  |  |  |  |  |  |  |  |
| O=C(Nc1ccc(N2CCNCC2)cc1)c1ccn2ncc(-c3cccc(Cl)c3)c2n1 [MMV022478] | 0.435 ± 0.0492 | 98.9 | 98.9 | > 25 | 5 | 74.6 |  | 0.448 | > 25 | 72.4 ± 5.6 |  |  |  |  |  |  |  |  |  |
| O=C(Nc1cccc(Cl)c1)c1cnc(N2CCN(c3ccncc3)CC2)c(Cl)c1 [MMV024406] | 0.9 ± 0.0659 | 97.3 | 97.3 | > 25 | 5 | 61.4 | low | 0.024 | > 25 | 55.6 ± 5.5 |  |  |  |  |  |  |  |  |  |
| Cc1cccc(C(=O)Nc2ccnc(N(C)C3CCN(CC(C)C)CC3)c2)c1 [MMV024829] | 0.411 ± 0.0566 | 82.4 | 82.4 |  | 4 |  |  | 0.356 |  | 69.6 ± 4.1 | > 25 | > 25 |  |  |  |  |  |  |  |
| COc1cncc(-c2cncc(N3CCN(c4ccncc4)CC3)n2)c1 [MMV085071] | 0.277 ± 0.0372 | 76.1 | 76.1 | > 25 | 7 | 67.3 |  | 0.283 | > 25 | 80.5 ± 4.2 |  |  |  |  |  |  |  |  |  |
| CN1CCCC1CCO[C@](C)(c1ccccc1)c1ccc(Cl)cc1 (stereo partly drawn) [MMV637229] |  |  |  |  | 2 |  |  |  |  |  |  |  |  |  |  |  |  |  |  |
| Clc1cccc(C(c2ccc(CN3CCNCC3)cc2)n2ccnc2)c1 (stereo not drawn) [MMV663250] |  | 81 | 81 | > 25 | 3 | 33.1 |  | 0.326 | > 25 |  |  |  |  |  |  |  |  |  |  |
| CN1CCN(CCCOc2ncc(Nc3ncc(-c4ccc(C(F)(F)F)c(F)c4)nc3C(N)=O)cn2)CC1 [MMV687812] |  | 72.9 | 72.9 | > 25 | 13 | 122 |  | 0.39 | > 25 |  |  |  |  |  |  |  |  |  |  |
| N=C(N)Nc1ccc(-c2ccc(-c3ccc(NC(=N)N)cc3Cl)o2)c(Cl)c1 [MMV688179, 2,5-Bis (2-chloro-4-guanidinophenyl) furan] |  | 80.6 | 80.6 | > 25 | 3 | 142 |  | 0.356 | > 25 |  |  |  |  |  |  |  |  |  |  |
| CO[C@@H]1CN(c2ccc(C#CC3(O)CN4CCC3CC4)c(Cc3ccccc3)n2)C[C@H]1O (stereo partly drawn) [MMV688415] | 0.374 ± 0.0454 | 98.7 |  | > 25 | 6 |  |  | 0.145 | > 25 | 68.6 ± 6.6 |  |  | 5.3 | 25 |  |  |  |  |  |
| COc1ccc(Oc2ccc([C@@H](C)N(C)c3ncc4c(N)nc(N)nc4n3)cc2)cc1 [MMV690102] | 0.076 ± 0.0181 | 95 |  | > 25 | 9 | 125 |  | 0.158 |  | 90.7 ± 5.3 |  |  |  |  | 4 | 5.4 | 0.003 | 36.5 µM and 36.55 µM and 36 µM | 478.4 |
| CCCCCCCCCCCCCCCCOP(=O)([O-])OCC[N+](C)(C)C [Miltefosine, reference compound] |  | 35.3 | 35.3 |  |  |  |  |  |  |  |  |  |  |  |  |  |  |  |  |
| N=C(N)c1ccc(OCCCCCOc2ccc(C(=N)N)cc2)cc1 [Pentamidine, reference compound] | 1.6 ± 0.09 | 64.7 | 64.7 |  |  |  |  | 1.31 |  |  |  |  |  |  |  |  |  |  |  |
